From US11466013B2 (Betta Pharmaceuticals Co., LTD, priority 2018, dated 2022)

Legend:
ERK1 = ERK1 (Homo sapiens, UniProt P27361); experiment: Kinase assay (Caliper, FAM-labeled peptide), ERK1; type: biochemical
Method in brief: (§1)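 Kinase preincubated 10 min at room temperature with serially diluted compound before FAM-labeled peptide plus ATP added; reaction run at 28 °C, then stopped. Substrate conversion read by Caliper mobility shift, normalized to DMSO and low controls, curve-fitted for IC50.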

HCT 116 cells = experiment: Cell proliferation assay (HCT 116), Cell-titer Glo; type: cell-based; settings: Homo sapiens, 120 h incubation
Experimental: The HCT 116 cells were paved in a 96-well plate at 1200 cells, 160 μL/well. After incubating overnight, the compound solutions of gradient concentration was prepared, and 40 μL of DMSO solution of the test compound of each concentration was added to the cells of each well. The final concentration of the compound was 30000, 10000, 3333.3, 1111.1, 370.4, 123.5, 41.2, 13.7, 4.6, 0 nM (the final concentration of DMSO was 0.5%). 5% CO2 was incubated for 120 h at 37° C. 50 μL of Cell-titer Glo working solution was added to each well, shaked and mixed, and incubated at room temperature for 10 minutes. The multi-functional microplate reader read the luminescence value, and converted the luminescence value reading into inhibition percentage. Inhibition percentage=(maximum value−reading)/(maximum value−minimum value)*100.
The “maximum value” was the DMSO control, the “minimum value” indicated the cell-free control group.
Graphpad Prism software was used to perform curve fitting and obtain IC50 value.

COLO205 cells = experiment: Cell proliferation assay (COLO205), Cell-titer Glo; type: cell-based; settings: Homo sapiens, COLO 205, 120 h incubation
Method in brief: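 Cells seeded 2000/well overnight, then exposed to compound at 30000 down to 4.6 nM final (0.5% DMSO) for 120 h at 37° C, 5% CO2. CellTiter-Glo luminescence converted to % inhibition against DMSO and cell-free controls; IC50 by curve fit.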

ERK2 = ERK2 (Homo sapiens, UniProt P28482); experiment: Kinase assay (Caliper, FAM-labeled peptide), ERK2; type: biochemical
Chain of ERK2 (P28482 whole entry): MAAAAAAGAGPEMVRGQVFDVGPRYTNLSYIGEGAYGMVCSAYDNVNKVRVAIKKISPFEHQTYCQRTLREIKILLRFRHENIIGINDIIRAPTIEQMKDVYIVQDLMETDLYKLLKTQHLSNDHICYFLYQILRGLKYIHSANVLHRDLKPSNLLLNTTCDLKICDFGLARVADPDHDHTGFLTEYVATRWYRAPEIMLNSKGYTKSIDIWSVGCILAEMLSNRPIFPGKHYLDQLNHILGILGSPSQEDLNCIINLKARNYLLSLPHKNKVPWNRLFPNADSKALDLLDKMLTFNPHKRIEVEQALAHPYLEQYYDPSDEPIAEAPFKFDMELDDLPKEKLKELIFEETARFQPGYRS
Method in brief: as §1

Chain of ERK1 (P27361 whole entry): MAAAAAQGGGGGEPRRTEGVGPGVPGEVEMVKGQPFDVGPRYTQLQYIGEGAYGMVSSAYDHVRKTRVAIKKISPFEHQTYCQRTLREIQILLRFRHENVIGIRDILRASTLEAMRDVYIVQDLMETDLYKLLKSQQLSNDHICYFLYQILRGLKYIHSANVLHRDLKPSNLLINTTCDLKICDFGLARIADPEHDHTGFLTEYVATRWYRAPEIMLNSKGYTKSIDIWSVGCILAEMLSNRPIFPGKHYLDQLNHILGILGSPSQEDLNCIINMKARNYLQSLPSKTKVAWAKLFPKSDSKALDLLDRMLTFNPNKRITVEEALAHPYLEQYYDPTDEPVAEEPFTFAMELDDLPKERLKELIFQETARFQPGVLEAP

| IC50 (ERK1) [nM] | IC50 (HCT 116 cells) [nM] | IC50 (COLO205 cells) [nM] | IC50 (ERK2) [nM] | SMILES |
| --- | --- | --- | --- | --- |
| 0.68 | 6.3 | 7.6 | 0.83 | CC(C)Nc1cc(-c2cc3n(c2)CC(CO)(CO)CN(Cc2cc(F)ccc2CO)C3=O)c(Cl)cn1 [Example 29, 8-(5-chloro-2-(isopropylamino)pyridin-4-yl)-2-(5-fluoro-2-(hydroxymethyl)benzyl)-4,4-bis (hydroxymethyl)-2,3,4,5-tetrahydro-1h-pyrrolo[1,2-a][1,4] diazepine-1-one] |
| 0.84 | 10.4 | 16.6 | 0.48 | COC[C@H]1Cn2cc(-c3nc(Nc4ccnn4C)ncc3C)cc2C(=O)N1Cc1cc(F)ccc1CO [Example 35, (R)-2-(5-fluoro-2-(hydroxymethyl)benzyl)-3-(methoxymethyl)-7-(5-methyl-2-((1-methyl-1H-pyrazol-5-yl)amino)pyrimidin-4-yl)-3,4-dihydropyrrolo[1,2-a]pyrazine-1(2H)-one] |
| 0.9 | 6.2 | 3.3 | 1.2 | COC[C@H]1Cn2cc(-c3cc(Nc4ccnn4C)ncc3Cl)cc2C(=O)N1Cc1cc(F)ccc1CO [Example 45, (R)-7-(5-chloro-2-((1-methyl-1H-pyrazol-5-yl)amino)pyridin-4-yl)-2-(5-fluoro-2-(hydroxymethyl)benzyl)-3-(methoxymethyl)-3,4-dihydropyrrolo[1,2-a]pyrazine-1(2H)-one] |
| 0.72 | 6.5 | 11.3 | 0.89 | Cn1nccc1Nc1cc(-c2cc3n(c2)CCN(Cc2cc(F)ccc2CO)C3=O)c(Cl)cn1 [Example 50, 7-(5-Chloro-2-((1-methyl-1H-pyrazol-5-yl)amino)pyridin-4-yl)-2-(5-fluoro-2-(hydroxymethyl)benzyl)-3,4-dihydropyrrolo[1,2-a]pyrazine-1(2H)-one] |
| 0.93 | 7.99 | 17.5 | 0.39 | COC[C@H]1Cn2cc(-c3cc(NC4CCOCC4)ncc3Cl)cc2C(=O)N1Cc1cc(F)ccc1CO [Example 62, (R)-7-(5-chloro-2-((tetrahydro-2h-pyran-4-yl)amino)pyridine-4-yl)-2-(5-fluoro-2-(hydroxymethyl)benzyl)-3-(methoxymethyl)-3,4-dihydropyrrolo[1,2-a] pyrazine-1(2H)-one] |
| 0.57 | 14.3 | 30.3 | 0.32 | O=C1c2cc(-c3cc(NC4CCOCC4)ncc3Cl)cn2CCN1Cc1cc(F)ccc1CO [Example 126, 7-(5-chloro-2-((tetrahydro-2h-pyran-4-yl)amino)pyridine-4-yl)-2-(5-fluoro-2-(hydroxymethyl)benzyl)-3,4-dihydropyrrolo[1,2-a] pyrazine-1(2H)-one] |
| – | 7.6 | 14.3 | 0.3 | Cc1cnc(Nc2ccnn2C)cc1-c1cc2n(c1)CCN(Cc1cc(F)ccc1CO)C2=O [Example 152, 2-(5-fluoro-2-(hydroxymethyl)benzyl)-7-(5-methyl-2-((1-methyl-1h-pyrazole-5-yl)amino)pyridine-4-yl)-3,4-dihydropyrrolo[1,2-a] pyrazine-1(2H)-one] |
| – | 10.7 | 11.4 | 0.89 | Cn1nccc1Nc1cc(-c2cc3n(c2)CCN(Cc2cc(F)c(F)cc2CO)C3=O)c(Cl)cn1 [Example 160, 7-(5-chloro-2-((1-methyl-1h-pyrazole-5-yl)amino)pyridine-4-yl)-2-(4,5-difluoro-2-(hydroxymethyl)benzyl)-3,4-dihydropyrrolo[1,2-a] pyrazine-1(2H)-one] |
| – | 18.8 | 15.4 | 0.62 | COC[C@H]1Cn2cc(-c3nc(Nc4ccnn4C)ncc3C(F)(F)F)cc2C(=O)N1Cc1cc(F)ccc1CO [Example 163, (R)-2-(5-fluoro-2-(hydroxymethyl)benzyl)-3-(methoxymethyl)-7-(2-((1-methyl-1h-pyrazole-5-yl)amino)-5-(trifluoromethyl)pyrimidin-4-yl)-3,4-dihydropyrrolo[1,2-a] pyrazine-1(2H)-one] |
| – | 8.4 | 11 | 0.59 | COC[C@H]1Cn2cc(-c3cc(Nc4ccnn4C)ncc3Cl)cc2C(=O)N1Cc1cc(F)c(F)c(F)c1CO [Example 168, (R)-7-(5-chloro-2-((1-methyl-1h-pyrazole-5-yl)amino)pyridine-4-yl)-3-(methoxymethyl)-2-(3,4,5-fluoro-2-(hydroxymethyl)benzyl)-3,4-dihydropyrrolo[1,2-a] pyrazine-1(2H)-one] |
